In US20120107323A1, “KINASE PROTEIN BINDING INHIBITORS” (University of Florida, priority 2009, published 2012):

What was measured:
C8161 melanoma cells [1] = assay: Cell viability (MTT), C8161; type: cell-based, human
Procedure: (§1) Cell viability (MTT) and CFSE Proliferation assay: Cells were plated in 96-well plates and let adhere overnight. After cell treatment, cell viability was measured by 3-(4,5-dimethylthiazol-2-yl)-2,5-diphenyl tetrazolium bromide (MTT) assay (CellTiter 96® Aqueous, Promega, Madison, Wis.).
(§2) Cell viability and detachment assays: After cells were treated with siRNA transfection, cell viability was measured by 3-(4,5-dimethylthiazol2-yl)-2,5-diphenyl tetrazolium bromide (MTT) assay (CellTiter 96® AQueous, Promega, Madison, Wis.). Briefly, 20 μl of the tetrazolium compound was added to each well. The cells were then incubated at 37° C. for 1 h. The plate was read at 490 nm with a plate reader to determine the viability. In detachment assays, detached and attached cells were harvested separately and counted in a hemocytometer. The percentage of detachment was calculated by dividing the number of detached cells by the total number of cells. Apoptosis assays: After treatment, attached and detached cells were collected, counted and prepared for terminal uridine deoxynucleotidyl transferase (TUNEL) assay by utilizing an APO-BRDU kit (BD Pharmingen, San Diego, Calif.) according to the manufacturer's instructions. Stained cells were analyzed with a fluorescence-activated cell sorting-Calibur flow cytometer (BD Biosciences). Calculation of the percentage of apoptotic cells in the sample was completed with CellQuest software (BD Biosciences). Apoptotic cells were also analyzed by Hoechst staining. Hoechst 33342 (1 µg/rill) was added to the fixed cells and the specimens were mounted on glass coverslips. The slides were viewed under the Zeiss microscope for apoptotic nuclei. The percent of apoptotic cells was calculated as the ratio of apoptotic cells to total number of cells.
(§3) In addition, the effect of INT2-31 on cell viability of esophageal, pancreatic and breast cancer cell lines was analyzed and the IC50 value for each cell line was determined, as shown in Table 1. […] Similar to melanoma results, INT2-31 inhibits viability more in cancer cells compared to normal cells. Sensitivity of the cells to INT2-31 varied and directly correlated to the FAK and IGF-1R expression level of the cells.
To determine the effect on melanoma cell viability, three human melanoma cell lines were exposed to increasing doses of INT2-31 for 72 h and the results compared to human melanocytes. […] The effects of INT2-31 varied in the three cell lines and was possibly related to constitutive FAK and IGF-1R activation with the least sensitive cell line (SK-MEL-28) having the greatest expression of FAK and IGF-1R.

[2] = test system: TE3 esophageal cancer cells; assay: Cell viability (MTT), TE3; type: cell-based; details: TE3, 72 hours; read-out: IC50 of INT2-31, cell viability
Procedure: as §1
as §2, with “Calculation of the percentage of apoptotic cells in the sample was completed with CellQuest software (BD Biosciences).” left out, “Hoechst 33342 (1 µg/rill) was added to the fixed cells and the specimens were mounted on glass coverslips. The slides were viewed under the Zeiss microscope for apoptotic nuclei. The percent of apoptotic cells was calculated as the ratio of apoptotic cells to total number of cells.” left out

C8161 subcutaneous tumor = assay: C8161 melanoma xenograft in nude mice; type: in vivo
Procedure: (§4) Kinase Profiler Screening: Kinase specificity screening was performed with Invitrogen's SelectScreen® Kinase Profiling Services http://www.invitrogen.com/site/us/en/home/Products-and-Services/Services/Discoverv-Research/SelectScreen-Profiling-Service/SelectScreen-Kinase-Profiling-Service.html. The screening was performed with 1 μM compound, INT2-31, 10 μM ATP, and kinase substrates against ten recombinant kinases according to Z′-LYTET™ Kinase Assay. For PI3 kinase activity, 100 μM ATP, and kinase substrate were utilized with the Invitrogen Adapta® Universal Kinase Assay protocol. Tumor Growth in Nude Mice in vivo: Six week old athymic, female nude mice were purchased from Harlan Laboratory. The mice were maintained in the animal facility, and all experiments were performed in compliance with NIH animal-use guidelines and under an IACUC approved protocol. Melanoma cells were injected, 5×10^6 cells, subcutaneously. When the tumor size reached 100 mm^3, the INT2-31 was introduced by intraperitoneal injection at a dose of 15 mg/kg daily for 21 days. Tumor diameters were measured with calipers, and tumor volume in mm^3 was calculated using the formula [(width)^2×length]/2. At the end of experiment, tumor weight and volume were determined.
For the melanoma study, the University of Florida IACUC approved the following protocol (IACUC Study #200801077). Melanoma cells were injected, 5×10^6 cells, subcutaneously. When the tumor size reached 100 mm^3, the INT2-31 was introduced by intraperitoneal injection at a dose of 15 mg/kg daily. Tumor diameters were measured with calipers, and tumor volume in mm^3 was calculated using the formula [(width)^2×length]/2. At the end of experiment, tumor weight and volume were determined.
Immunohistochemistry: Xenograft tumor tissue was fixed in 10% formalin and embedded in paraffin. For Ki-67 staining, samples underwent deparaffinization and antigen retrieval and incubated with the primary antibody, Ki-67 (Dako M7240), at 1:200 concentration overnight at 4° C. The tissues were stained with the chromogen DAB and counterstained with hematoxylin and 1% TBS.
For assessment of apoptotic cells, staining was performed utilizing the Dead End™ Calorimetric TUNEL System (Promega, Madison, Wis.) according to instructions from the manufacturer. Percent apoptotic cells were determined from counting at least 400 cells in a high power field.

[3] = Previous toxicity testing at 50 mg/kg/day; type: in vivo, mice; details: 50 mg/kg/day i.p.
IGF-1R = IGF-1R (Homo sapiens, UniProt P08069); assay: Kinase profiler screening, IGF-1R; type: biochemical; details: 1 μM compound, 10 μM ATP
Chain of IGF-1R (P08069 31-1367): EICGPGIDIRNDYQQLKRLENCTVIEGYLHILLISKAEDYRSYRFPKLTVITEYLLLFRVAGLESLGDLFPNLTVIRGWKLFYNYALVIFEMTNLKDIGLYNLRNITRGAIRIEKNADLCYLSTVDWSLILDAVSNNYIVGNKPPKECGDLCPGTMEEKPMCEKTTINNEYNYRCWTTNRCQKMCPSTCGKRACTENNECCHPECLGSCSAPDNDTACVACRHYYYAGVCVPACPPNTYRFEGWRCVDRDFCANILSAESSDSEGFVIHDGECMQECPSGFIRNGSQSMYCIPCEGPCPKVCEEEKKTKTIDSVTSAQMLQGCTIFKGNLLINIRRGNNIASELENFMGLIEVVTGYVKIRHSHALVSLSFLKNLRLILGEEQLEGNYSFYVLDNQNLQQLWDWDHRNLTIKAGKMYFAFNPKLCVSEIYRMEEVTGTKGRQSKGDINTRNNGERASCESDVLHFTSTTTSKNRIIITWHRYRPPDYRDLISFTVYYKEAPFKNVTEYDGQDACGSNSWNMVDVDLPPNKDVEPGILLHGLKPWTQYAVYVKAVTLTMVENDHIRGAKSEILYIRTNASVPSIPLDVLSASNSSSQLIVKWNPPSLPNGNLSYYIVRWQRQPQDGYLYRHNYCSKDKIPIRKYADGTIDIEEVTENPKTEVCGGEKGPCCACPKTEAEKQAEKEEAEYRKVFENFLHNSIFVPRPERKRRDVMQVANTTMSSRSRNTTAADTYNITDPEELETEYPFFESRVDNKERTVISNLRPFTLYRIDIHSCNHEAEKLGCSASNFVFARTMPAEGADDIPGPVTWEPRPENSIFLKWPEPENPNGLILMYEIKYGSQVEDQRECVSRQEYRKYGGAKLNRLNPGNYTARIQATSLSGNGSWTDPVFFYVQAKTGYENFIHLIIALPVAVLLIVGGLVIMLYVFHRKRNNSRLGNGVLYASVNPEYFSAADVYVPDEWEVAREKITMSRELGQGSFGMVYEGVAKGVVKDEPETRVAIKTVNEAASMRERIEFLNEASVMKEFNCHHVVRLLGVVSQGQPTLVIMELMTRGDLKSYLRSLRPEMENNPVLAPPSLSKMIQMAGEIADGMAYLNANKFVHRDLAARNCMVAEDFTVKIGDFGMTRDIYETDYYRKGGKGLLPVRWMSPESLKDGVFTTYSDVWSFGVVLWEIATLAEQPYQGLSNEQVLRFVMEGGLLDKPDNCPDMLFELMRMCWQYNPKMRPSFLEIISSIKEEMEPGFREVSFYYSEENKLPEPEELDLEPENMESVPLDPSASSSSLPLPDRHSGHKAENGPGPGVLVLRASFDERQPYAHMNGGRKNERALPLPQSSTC
Procedure: as §4

MCF10A cells = assay: Cell viability (MTT), MCF10A; type: cell-based; details: Homo sapiens, MCF-10A, 72 hours, read-out: IC50 of INT2-31, cell viability
Procedure: as §1
as §2, with “Calculation of the percentage of apoptotic cells in the sample was completed with CellQuest software (BD Biosciences).” left out, “Hoechst 33342 (1 µg/rill) was added to the fixed cells and the specimens were mounted on glass coverslips. The slides were viewed under the Zeiss microscope for apoptotic nuclei. The percent of apoptotic cells was calculated as the ratio of apoptotic cells to total number of cells.” left out

[4] = test system: TE9 esophageal cancer cells; assay: Cell viability (MTT), TE9; type: cell-based; details: TE9, 72 hours; read-out: IC50 of INT2-31, cell viability
Procedure: as §1
as §2, with “Calculation of the percentage of apoptotic cells in the sample was completed with CellQuest software (BD Biosciences).” left out, “Hoechst 33342 (1 µg/rill) was added to the fixed cells and the specimens were mounted on glass coverslips. The slides were viewed under the Zeiss microscope for apoptotic nuclei. The percent of apoptotic cells was calculated as the ratio of apoptotic cells to total number of cells.” left out

C8161 melanoma cells [5] = assay: Cell counts, C8161; type: cell-based, human
[6] = test system: TE7 esophageal cancer cells; assay: Cell viability (MTT), TE7; type: cell-based; details: TE7, 72 hours; read-out: IC50 of INT2-31, cell viability
Procedure: as §1
as §2, with “Calculation of the percentage of apoptotic cells in the sample was completed with CellQuest software (BD Biosciences).” left out, “Hoechst 33342 (1 µg/rill) was added to the fixed cells and the specimens were mounted on glass coverslips. The slides were viewed under the Zeiss microscope for apoptotic nuclei. The percent of apoptotic cells was calculated as the ratio of apoptotic cells to total number of cells.” left out

[7] = test system: KYSE140 esophageal cancer cells; assay: Cell viability (MTT), KYSE140; type: cell-based
Procedure: as §1, §2, §3

[8] = test system: Miapaca-2 pancreatic cancer cells; assay: Cell viability (MTT), Miapaca-2; type: cell-based
Procedure: as §1
as §2, with “Calculation of the percentage of apoptotic cells in the sample was completed with CellQuest software (BD Biosciences).” left out, “Hoechst 33342 (1 µg/rill) was added to the fixed cells and the specimens were mounted on glass coverslips. The slides were viewed under the Zeiss microscope for apoptotic nuclei. The percent of apoptotic cells was calculated as the ratio of apoptotic cells to total number of cells.” left out

CSc1ncnc2c1ccn2C1O[C@H](COP(=O)(O)O)[C@@H](O)[C@H]1O (stereo partly drawn) [INT2-31, 4-(Methylthio)-7-(5-O-phosphono-D-ribofuranosyl)-{7H-Pyrrolo[2,3-d]pyrimidine}]
cell viability (in words) (C8161 melanoma cells [1]; C8161, MTT): inhibited cell viability in a dose-dependent manner
IC50 (C8161 melanoma cells [1]; Homo sapiens, C8161, 72 hours, read-out: IC50 of INT2-31, cell viability): 0.5 µM
sensitivity of C8161 cells expressing FAK shRNA compared to parental and mock transfected cells (C8161 melanoma cells [1]; MTT, FAK shRNA1 knockdown): significantly less sensitive
IC50 [2]: 5.6 µM
phosphorylation of AKT in tumor (C8161 subcutaneous tumor; 15 mg/kg vs PBS control, Western blot): decrease in phosphorylation of AKT
subcutaneous tumor growth compared to PBS control (C8161 subcutaneous tumor; C8161, 15 mg/kg daily intraperitoneal, 21 days, p<0.05): significant decrease
body weights between animals in each group (C8161 subcutaneous tumor; C8161 and A375 xenograft mice, 15 mg/kg): no significant difference
intensity of Ki67 staining (C8161 subcutaneous tumor; C8161 tumors, 15 mg/kg vs PBS): significantly decreased
percent of cells reactive to Ki67 (C8161 subcutaneous tumor; C8161 tumors, 15 mg/kg vs PBS): significantly decreased
percent of cells undergoing apoptosis (TUNEL) (C8161 subcutaneous tumor; C8161 tumors, 15 mg/kg vs control, p<0.05): significantly increased
densitometry, mean ratio of IGF-1R to FAK in tumor (C8161 subcutaneous tumor; C8161 tumors, immunoprecipitation of FAK, PBS 0.98+/−0.11, p=0.09): 0.78+/−0.16
toxicity [3]: no measurable toxicity
kinase activity of IGF-1R (IGF-1R): did not inhibit
IC50 (MCF10A cells): 100 µM
IC50 [4]: 3.6 µM
growth, cell numbers (C8161 melanoma cells [5]): potent time and dose dependent inhibition
IC50 [6]: 3.2 µM
IC50 ([7]; Homo sapiens, KYSE-140, KYSE140, 72 hours, read-out: IC50 of INT2-31, cell viability): 2.5 µM
effect of combination with 5-FU on cell viability ([7]; KYSE 140, 0.5 and 1 μM INT2-31): synergistic effects
sensitivity of cells to single-agent treatment ([7]; KYSE 140, 72 hours): sensitive
IC50 ([8]; Homo sapiens, MIA PaCa-2, Miapaca-2, 72 hours, read-out: IC50 of INT2-31, cell viability): 4.73 µM
cell viability (in words) ([8]; MiaPaCa-2, 72 hours): inhibits the cell viability
